One data set deals with MKs derived from HA-iPS. As to the kind of experiment: Platelet generation under constant shear force in microfluidic device, HA-iPS derived MKs. In kind it is cell-based, human. As for the experimental part: Matured MKs, derived from HA-iPS and MA09 hES lines, were used. Equal numbers of MKs suspended in MK-specific medium were loaded into a microfluidic device in the presence or absence of 20 μM MMP inhibitor GM6001. Constant shear force was applied to the MKs throughout the culture period. MK-medium downstream of MKs was collected at 30 minute intervals for a period of 6 hours. Platelet number and purity (i.e., percentage of total cells that are CD41a^+CD42b^+) in the collected media were measured using flow cytometer.

In data set [1] the test system is iPS derived megakaryocytes. As to the kind of experiment: Platelet formation in static culture with MMP inhibitors. Type of data set: cell-based, human. To be noted: for protection of platelets (CD42b shedding) compared with GM6001: comparative study of specific MMP inhibitors. As for the experimental part:
The peak of platelet production is determined by measuring platelet content in the culture, for example on a daily basis for several days. It is typically 4-7 days after the beginning of the MLP differentiation culture period, although it may be longer or it may be shifted. To induce MK maturation and platelet formation, freshly collected or thawed MKPs were cultured in MK maturation medium (MK-M) containing […]+TPO, SCF, IL-6 and […] Megakaryocyte Expansion Supplement) and heparin (5 U/ml) in ultralow attachment plates (Corning). 5 μM of Y-27632 was added for the first 3 days of culture, and cells were incubated in 7% CO2 at 39° C. Cell morphology and density were monitored daily and fresh medium was added to maintain 10^6 cells/ml for the first 4 days. The maturation of MKs from MKPs was monitored using flow cytometric analysis of CD41a, CD42b, and CD235a. Once pro-platelet morphology was observed, medium samples were taken daily to determine platelet yield using CD41a/CD42b double staining by flow cytometric analysis. Platelets were collected for 3-5 consecutive days during the peak of production. To extract platelets, large MKs were removed first using low speed centrifugation (50×g for 10 min), and proplatelets and small MKs were removed by further 10 min centrifugation at 300×g. The iPS-platelets in the supernatants were collected using higher g force (1000-2500×g) in the presence of PGE1 (1 μM). The collected iPS-platelet pellets were then subjected to further purification using a BSA gradient centrifugation as described previously (Robert et al., 2012). Briefly, iPS-platelet pellets were re-suspended with 1× CGS buffer. Platelets were applied in the buffer on top of a BSA gradient with BSA concentration of (weight/volume) of 12, 10, 7, 5 and 2%. The sample was centrifuged at 82×g for 15 min with no break, then the platelet-rich fraction was collected. iPS-platelets purified from BSA gradient were stored or transported at room temperature in MK-M for further analyses.

Data set [2] relates to cells undergoing in vitro megakaryopoiesis. Kind of data set: iBET151 treatment of MKP Day 6+3 cultures. As to conditions: for increase of MKP outputs vs untreated controls: 24 hours; for CD14+ myeloid cells: D6+3 to D6+4, control about 12%; for number/formation of CD14+ myeloid cells: 0.1 and 0.25 μM. Type of data set: cell-based, human. As for the experimental part: To promote early MK progenitor production, cells were cultured in MK-Specific Progenitor Expansion medium (EXP-M) containing STEMdiff APEL Medium+TPO (25 ng/ml), SCF (25 ng/ml), Flt-3 ligand (25 ng/ml), IL-3 (10 ng/ml), IL-6 (10 ng/ml) and heparin (5 U/ml) for up to 7 days. Non-adherent MK Progenitors (MKPs) were constantly released into the medium and harvested for 4-5 consecutive days in EXP-M. Daily harvests were cryo-preserved in animal protein-free defined cryopreservation CryoStor™ medium. Samples of MKPs were also subjected to flow cytometry for analysis of CD41a, CD42b, CD31, CD34, CD43, CD13, CD235a, and CD14 cell surface expression.
(§1) As also described above in Example 10, we therefore determined whether suppression of c-myc expression would enhance MK lineage differentiation/expansion and simultaneously prohibit myeloid and other lineage differentiation/expansion. MKP Day 6+3 cultures were treated with non-cytotoxic doses of a c-myc inhibitor, iBET151 (0.1 and 0.25 μM) for 24 hours and then harvested for analysis. […] CD14+ myeloid cells were decreased from about 12% in control cultures to less than 5% and 3% in cultures treated with iBET151 at 0.1 and 0.25 μM, respectively.

For another data set, the system named is c-myc gene expression. Kind of data set: Q-PCR of MYC in MKPs treated with iBET151. Type of data set: cell-based, human. As to conditions: 0.1 and 0.25 μM. As for the experimental part:
as §1

The test system of a further data set is GATA1 gene expression. Kind of data set: Q-PCR of GATA1 in MKPs treated with iBET151. In kind it is cell-based, human. As to conditions: 0.1 and 0.25 μM. As for the experimental part: as §1
Data set [3] deals with human and murine MLL-fusion leukemic cell lines. As to conditions: induction of early cell cycle arrest and apoptosis; cited from earlier work.
The mark [4] stands for this setting: constant shear force, 20 μM added at beginning of culture, vs DMSO.

The structures appear in SMILES notation.

On to `CNC(=O)[C@H](Cc1c[nH]c2ccccc12)NC(=O)[C@@H](CC(=O)NO)CC(C)C` [GM6001], for which, in the data set on MKs derived from HA-iPS (setting [4]), the “platelet purity (percentage CD41a+CD42b+)” value is recorded as “significantly improved” and the platelet yield entry is “significantly improved”. Also, in the data set with MKs derived from HA-iPS (shear force culture, FIG. 23), the “platelet numbers as a function of time” value is given as “significantly more platelets were generated”. The “CD41b+/CD42b+ platelets” value in data set [1] (added in MK culture, control 45%) is recorded as 59%.

On to `COc1cc2c(cc1-c1c(C)noc1C)ncc1[nH]c(=O)n([C@H](C)c3ccccn3)c12` [iBET151], for which the “increase of MKP outputs vs untreated controls” value in data set [2] (0.1 μM) is “≈ 2 fold”; in data set [2] (0.25 μM), around 4 fold. Further, the “CD14+ myeloid cells” value in data set [2] (0.1 μM) is on record as “less than 5%”; in data set [2] (0.25 μM), below 3%. Besides, the “number/formation of CD14+ myeloid cells” value in data set [2] was “inhibited”; in data set [2] (listed as i-BET-151), “dose-dependent decrease”. For the same molecule, the apoptosis entry in data set [2] (high dose) is recorded as “massive apoptosis”. For the same molecule, the “numbers of MK progenitors” value in data set [2] (lower doses, micromolar or submicromolar range) is recorded as “increased numbers of MK progenitors”. Further, the entries for the “c-myc (MYC) mRNA expression” value in the data set with c-myc gene expression and with c-myc gene expression (listed as i-BET-151) were “dose-dependent downregulation” and “dose-dependent inhibition”, respectively. Further, the results for the “GATA1 mRNA expression” value in the data set with GATA1 gene expression and in the data set on GATA1 gene expression (listed as i-BET-151) were “up-regulation” and “up-regulated”, respectively. For the same molecule, the “efficacy against leukemic cell lines” value in data set [3] is “profound efficacy”.

For the molecule `COc1ccc(S(=O)(=O)N2Cc3ccccc3C[C@@H]2C(=O)NO)cc1` [MMP8-I, (3R)-(+)-[2-(4-Methoxybenzenesulfonyl)-1,2,3,4-tetrahydroisoquinoline-3-hydroxamate]], in data set [1] (MK culture), the “total number of CD41a+CD42b+ platelets, increase vs control” value is given as ~ 46%. The “protection of platelets (CD42b shedding) compared with GM6001” value in data set [1] is “superior shedding protection than GM”. Further, the “protection of platelets (CD42b shedding) compared with GM6001” value in data set [1] (listed as MMP8 inhibitor) is listed as “more potency than GM6001”. Besides, in data set [1] (static culture), the “CD41a+CD42b+ platelets produced as compared to GM6001” value is on record as “Significantly more” and the “purity gain over GM6001-treated cultures” value is on record as “approximately 10%”. For the same molecule, the “purity of iPS-derived platelets” value in data set [1] (static culture, added at the peak of platelet production, control 43.7%) stood at 65.5%.

The values are drawn from patent USRE50977E1, “Methods for production of platelets from pluripotent stem cells and compositions thereof” (Astellas Institute for Regenerative Medicine, priority 2012, dated 2026).
